According to BindingDB's records for PubMed 2894455 (University of Missouri, 1988):
Where “and” joins values, the source holds several entries; their conditions need not be identical. Equal entries are not always repeated.

target: T1, Alpha-2B adrenergic receptor (Didelphis virginiana, UniProt O77715)
T1 sequence (O77715 whole entry): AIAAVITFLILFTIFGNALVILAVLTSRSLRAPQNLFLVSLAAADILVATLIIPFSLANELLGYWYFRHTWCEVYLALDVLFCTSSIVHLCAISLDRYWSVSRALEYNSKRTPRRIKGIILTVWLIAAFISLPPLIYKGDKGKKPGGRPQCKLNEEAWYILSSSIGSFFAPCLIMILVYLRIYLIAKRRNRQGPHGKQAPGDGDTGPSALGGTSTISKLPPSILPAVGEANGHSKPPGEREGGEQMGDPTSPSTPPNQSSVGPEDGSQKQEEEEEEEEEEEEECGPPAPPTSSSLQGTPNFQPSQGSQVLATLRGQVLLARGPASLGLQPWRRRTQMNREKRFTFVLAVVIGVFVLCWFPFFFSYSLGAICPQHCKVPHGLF

Row | Ki | Structure (SMILES)
1 | 0.031 µM | CNCC(O)c1ccc(O)c(O)c1 (centres undefined) [EPINEPHRINE]
2 | 0.0056 µM | Cc1ccc(N(CC2=NCCN2)c2cccc(O)c2)cc1 [SMR000059054]
3 | 0.122 µM | NCC(O)c1ccc(O)c(O)c1 (stereo not drawn) [Noradrenaline,(+)]

More lines, now with the values behind:

Row | Structure (SMILES) | Ki
4 | O=C(c1ccc(F)cc1)C1CCN(CCn2c(=O)[nH]c3ccccc3c2=O)CC1 [3-(2-{4-[(4-fluorophenyl)carbonyl]piperidin-1-yl}ethyl)-1,2,3,4-tetrahydroquinazoline-2,4-dione] | 0.143 µM
5 | COc1cc2nc(N3CCN(C(=O)c4ccco4)CC3)nc(N)c2cc1OC [[3H]-Minipress] | 0.0074 µM and 0.0076 µM
6 | Clc1cccc(Cl)c1N=C1NCCN1 [2-(2,6-dichloroanilino)-2-imidazoline] | 0.014 µM
7 | COc1cccc(OC)c1OCCNCC1Oc2ccccc2OC1c1ccccc1 (centres undefined) [NSC_185453] | 0.00027 µM
8 | Cc1cc(C(C)(C)C)c(O)c(C)c1CC1=NCCN1 [SMR000059324] | 0.01 µM
9 | Brc1c(NC2=NCCN2)ccc2nccnc12 [UK 14,304] | 0.022 µM
